Marks after values point to notes of the source that are not given here.
Key:
[1] = system: Wistar rats subjected to ligature of bile duct; test: Portal and systemic pressure after a week treatment in rats with bile duct ligature; type: in vivo, rat; conditions: for Portal pressure After a week treatment: bile duct ligated Wistar rats, 0.04 mmol/kg twice a day intragastric for one week
Text: Twenty one Wistar rats were divided in three groups of 7 animals each and then subjected to ligature of bile duct. Within three weeks following the ligature, the animals were left on rest. As a consequence of the bile duct ligature, the animals developed dysfunctions of the hepatic and portal venous circulation. At the end of the third week, each group underwent the following weekly treatment protocol: • Group 1: control group treated with carrier (1% w/v water suspension of carboxymethylcellulose); • Group 2: treated with NO-urso at a dose of 28 mg/kg (0.04 mmol/kg), twice a day; • Group 3: treated with ursodeoxycholic acid (urso in table) at a dose of 15 mg/kg (0,04 mmol/kg), twice a day. The rested compounds have been administered by intragastric cannula in 1% water suspension of carboxymethylcellulose. At the end of the treatment (fourth week) the animals were anaesthetized with urethane and then systemic pressure (MAP) and portal pressure (PP) were monitored by catheterisation both of the carotid and portal vein. The animal liver was then continuously perfused with Krebs solution (40 ml/min) balanced with O2/CO2 (95%-5%) using a peristaltic pump (Gilson) In this way the pharmacological effect of both tested compounds has been evaluated.

[2] = system: Wistar rats subjected to ligature of bile duct; test: Hepatic fibrosis evaluated by an immunocytochemical method in bile duct ligated rats; type: in vivo, rat; conditions: a week treatment in bile duct ligated rats
Text: Twenty one Wistar rats were divided in three groups of 7 animals each and then subjected to ligature of bile duct. Within three weeks following the ligature, the animals were left on rest. As a consequence of the bile duct ligature, the animals developed dysfunctions of the hepatic and portal venous circulation. At the end of the third week, each group underwent the following weekly treatment protocol: • Group 1: control group treated with carrier (1% w/v water suspension of carboxymethylcellulose); • Group 2: treated with NO-urso at a dose of 28 mg/kg (0.04 mmol/kg), twice a day; • Group 3: treated with ursodeoxycholic acid (urso in table) at a dose of 15 mg/kg (0,04 mmol/kg), twice a day.

[3] = system: rat liver perfused with norepinephrine solution; test: Perfused rat liver: intrahepatic constriction induced by norepinephrine, infusion of tested compound; type: in vivo; conditions: for Portal pressure % increase after NE infusion: liver perfused with norepinephrine 1 μM, then single infusion of 1 mM solution of tested compound
Protocol: At the end of the treatment (fourth week) the animals were anaesthetized with urethane and then systemic pressure (MAP) and portal pressure (PP) were monitored by catheterisation both of the carotid and portal vein. The animal liver was then continuously perfused with Krebs solution (40 ml/min) balanced with O2/CO2 (95%-5%) using a peristaltic pump (Gilson) In this way the pharmacological effect of both tested compounds has been evaluated. The rat liver was then firstly perfused with norepinephrine solution (1 μM) in order to induce an intrahepatic circulation constriction. Afterwards, in groups 2 and 3 a single infusion with a 1 mM solution of each of the tested compounds was carried out and portal pressure variations have been monitored.

| Structure (SMILES) | portal pressure reduction ([1]; after the week treatment, perfusion rate 40 ml/min, with respect to controls) | Portal pressure After a week treatment ([1]; perfusion rate 40 ml/min) | influence on systemic hemodynamic parameters (systemic pressure, cardiac frequency) ([1]; rat, in vivo) | influence on hepatic fibrosis [2] | influence on hepatic fibrosis ([2]; listed as No-urso) | increase of intrahepatic resistance induced by norepinephrine ([3]; 500% increase determined by NE infusion, NO-urso p<0.001) | Portal pressure % increase after NE infusion [3] | influence on systemic hemodynamic parameters (systemic pressure, cardiac frequency) ([1]; a week treatment in bile duct ligated rats) | portal pressure increase with respect to controls ([1]; after the week treatment, perfusion rate 40 ml/min) | Systemic hemodynamic parameters: Systemic pressure (MAP) ([1]; bile duct ligated rats after a week treatment, 0.04 mmol/kg twice a day, carotid catheterisation, in mmHg (unit assumed)) | Systemic hemodynamic parameters: Cardiac frequency ([1]; bile duct ligated rats after a week treatment, 0.04 mmol/kg twice a day, in beats/min (unit assumed)) |
| --- | --- | --- | --- | --- | --- | --- | --- | --- | --- | --- | --- |
| COc1cc(/C=C/C(=O)OCCCCO[N+](=O)[O-])ccc1OC(=O)CC[C@@H](C)[C@H]1CC[C@H]2[C@@H]3[C@@H](O)C[C@@H]4C[C@H](O)CC[C@]4(C)[C@H]3CC[C@]12C [NO-urso, (3α,5β,7β)-3,7-dihydroxycholan-24-oic Acid 2-methoxy-4[3-[4-(nitrooxy)butoxy]-3-oxo-1-propenyl]phenyl Ester] | 3 mmHg | 14* mmHg | do not influence | does not modify | do not influence | significantly reduced | 180% | – | – | – | – |
| C[C@H](CCC(=O)O)[C@H]1CC[C@H]2[C@@H]3[C@@H](O)C[C@@H]4C[C@H](O)CC[C@]4(C)[C@H]3CC[C@]12C [Urso, ursodeoxycholic acid] | – | 19 mmHg | – | – | – | – | 400% | do not influence | 2 mmHg | 95 ± 12 | 372 ± 41 |

— patent US20060094664A1, “Deoxycholic acid derivatives for the treatment of acute dysfunctions of portal and hepatic venous circulation” (priority 2002, published 2006)
